Values belong to the compound of their own block, whether it stands above or below them.
How the values were obtained:
MDA-MB-231 = experiment: Cytotoxicity against human MDA-MB-231 cells after 72 hrs by MTT assay; type: functional, cell-based; details: MDA-MB-231, 72 h
HT-29 [1] = experiment: Cytotoxicity against human HT-29 cells after 72 hrs by MTT assay; details: HT-29, 72 h
[2] = Cytotoxicity against human MKN45 cells after 72 hrs by MTT assay; details: MKN-45, 72 h
A549 = experiment: Cytotoxicity against human A549 cells after 72 hrs by MTT assay; type: functional, cell-based; details: A549, 72 h
PBL = experiment: Cytotoxicity against human PBL cells after 72 hrs by MTT assay; type: cell-based
Mus musculus [3] = experiment: AUC (0 to infinity) in mouse at 20 mg/kg, iv or 35 mg/kg, po administered as single dose by LC/MS/MS analysis; type: ADME, organism-based; details: in vivo
Mus musculus [4] = experiment: Tmax in mouse at 35 mg/kg, po administered as single dose by LC/MS/MS analysis; type: ADME, organism-based; details: in vivo
Mus musculus [5] = experiment: Half life in mouse at 20 mg/kg, iv or 35 mg/kg, po administered as single dose by LC/MS/MS analysis; type: ADME, organism-based; details: in vivo
[6] = Apparent volume of distribution during terminal phase in mouse at 35 mg/kg, po administered as single dose measured at 0.25 to 24 hrs by LC/MS/MS analysis; type: ADME, organism-based; details: in vivo, read-out: Vz/F
[7] = Mean residence time (0 to infinity) in mouse at 20 mg/kg, iv or 35 mg/kg, po administered as single dose by LC/MS/MS analysis; type: ADME, organism-based; details: in vivo
Mus musculus [8] = experiment: Cmax in mouse at 35 mg/kg, po administered as single dose measured at 0.25 to 24 hrs by LC/MS/MS analysis; type: ADME, organism-based; design: dose 35 mg/kg, route oral; details: in vivo
Mus musculus [9] = experiment: Toxicity in Balb/c mouse xenografted with human MKN45 cells assessed as change in body weight at 50 mg/kg, po bid for 24 days; type: organism-based, MKN-45; details: in vivo, 576 h
[10] = Antitumor activity against human MKN45 cells xenografted in Balb/c mouse assessed as tumor growth inhibition at 50 mg/kg, po bid for 24 days relative to control; type: functional, MKN-45; design: scale not given: the % may be the effect or the level left
Mus musculus [11] = experiment: Toxicity in Balb/c mouse xenografted with human HT-29 cells assessed as change in body weight at 50 mg/kg, po bid for 27 days; type: organism-based; details: in vivo, 648 h
HT-29 [12] = experiment: Antitumor activity against human HT-29 cells xenografted in Balb/c mouse assessed as tumor growth inhibition at 50 mg/kg, po bid for 27 days relative to control; type: functional; design: scale not given: the % may be the effect or the level left

Compound: COc1cc2c(Oc3ccc(NC(=O)N/N=C/c4ccc([N+](=O)[O-])cc4)cc3F)ccnc2cc1OCCCN1CCCC1
IC50 (MDA-MB-231): 0.97 µM
IC50 (HT-29 [1]): 0.31 µM
IC50 [2]: 0.47 µM
IC50 (A549): 0.46 µM

Compound: COc1cc2c(Oc3ccc(NC(=O)N/N=C/c4ccncc4)cc3F)ccnc2cc1OCCCN1CCCCC1
IC50 (MDA-MB-231): 1.4 µM
IC50 (HT-29 [1]): 0.94 µM
IC50 [2]: 0.98 µM
IC50 (A549): 0.84 µM

Compound: COc1cc2c(Oc3ccc(NC(=S)N/N=C/c4ccc(Cl)cc4)cc3F)ccnc2cc1OCCCN1CCCCC1
IC50 (MDA-MB-231): 1.3 µM
IC50 (HT-29 [1]): 0.19 µM
IC50 [2]: 0.5 µM

Compound: COc1cc2c(Oc3ccc(NC(=O)N/N=C/c4ccc(Cl)cc4Cl)cc3F)ccnc2cc1OCCCN1CCCCC1
IC50 (MDA-MB-231): 0.75 µM
IC50 (HT-29 [1]): 0.37 µM
IC50 [2]: 0.46 µM

Compound: COc1cc2c(Oc3ccc(NC(=O)N/N=C/c4ccc(N(C)C)cc4)cc3F)ccnc2cc1OCCCN1CCCCC1
IC50 (MDA-MB-231): 1.4 µM
IC50 (HT-29 [1]): 1 µM
IC50 [2]: 0.87 µM

Compound: COc1cc2c(Oc3ccc(NC(=O)N/N=C/c4ccc(F)cc4Cl)cc3F)ccnc2cc1OCCCN1CCC(C)CC1
IC50 (MDA-MB-231): 1.5 µM
IC50 (HT-29 [1]): 0.44 µM
IC50 (PBL): 79.5 µM
IC50 [2]: 0.53 µM
IC50 (A549): 0.19 µM

AUC (Mus musculus [3]): 1210 ng·h/mL
Tmax (Mus musculus [4]): 7.33 h
t1/2 (Mus musculus [5]): 5.07 h
Vd/F [6]: 346 L/kg
MRT inf [7]: 14.8 h
Cmax (Mus musculus [8]): 73 ng/mL
Compound: COc1cc2c(Oc3ccc(/C=N/NC(=O)Nc4ccc(F)cc4Br)cc3F)ccnc2cc1OCCCN1CCCCC1
IC50 (MDA-MB-231): 1 µM
IC50 (HT-29 [1]): 0.11 µM
IC50 (PBL): 36.4 µM
IC50 [2]: 0.14 µM
IC50 (A549): 0.098 µM

Compound: COc1cc2c(Oc3ccc(NC(=O)N/N=C/c4ccc(C(F)(F)F)cc4)cc3F)ccnc2cc1OCCCN1CCC(C)CC1
IC50 (MDA-MB-231): 1.3 µM
IC50 (HT-29 [1]): 0.74 µM
IC50 [2]: 1 µM
IC50 (A549): 0.65 µM

Compound: COc1cc2c(Oc3ccc(NC(=S)N/N=C/c4ccc(F)cc4Cl)cc3F)ccnc2cc1OCCCN1CCCCC1
IC50 (MDA-MB-231): 1.4 µM
IC50 (HT-29 [1]): 0.42 µM
IC50 (PBL): 34.1 µM
IC50 [2]: 0.82 µM
IC50 (A549): 0.23 µM

AUC (Mus musculus [3]): 7340 ng·h/mL
Tmax (Mus musculus [4]): 12 h
t1/2 (Mus musculus [5]): 13.48 h
Vd/F [6]: 107 L/kg
MRT inf [7]: 24.3 h
Cmax (Mus musculus [8]): 87 ng/mL
Compound: COc1cc2c(Oc3ccc(NC(=S)N/N=C/c4ccccc4)cc3F)ccnc2cc1OCCCN1CCCCC1
IC50 (MDA-MB-231): 1.2 µM
IC50 (HT-29 [1]): 0.21 µM
IC50 (PBL): 78.4 µM
IC50 [2]: 0.71 µM
IC50 (A549): 0.33 µM

Compound: COc1ccc(/C=N/NC(=O)Nc2ccc(Oc3ccnc4cc(OCCCN5CCOCC5)c(OC)cc34)c(F)c2)cc1
IC50 (MDA-MB-231): 1.9 µM
IC50 (HT-29 [1]): 0.9 µM
IC50 (PBL): 17.2 µM
IC50 [2]: 0.77 µM

Compound: COc1cc2c(Oc3ccc(NC(=S)N/N=C/c4ccc(F)c(F)c4)cc3F)ccnc2cc1OCCCN1CCCCC1
IC50 (MDA-MB-231): 1.4 µM
IC50 (HT-29 [1]): 0.61 µM
IC50 [2]: 0.74 µM

Compound: COc1ccc(/C=N/NC(=O)Nc2ccc(Oc3ccnc4cc(OCCCN5CCCCC5)c(OC)cc34)c(F)c2)cc1
IC50 (MDA-MB-231): 0.84 µM
IC50 (HT-29 [1]): 0.59 µM
IC50 (PBL): 126 µM
IC50 [2]: 0.66 µM
IC50 (A549): 0.54 µM

Compound: COc1ccc(/C=N/NC(=O)Nc2ccc(Oc3ccnc4cc(OCCCN5CCCC5)c(OC)cc34)c(F)c2)cc1
IC50 (MDA-MB-231): 1.3 µM
IC50 (HT-29 [1]): 0.69 µM
IC50 (PBL): 26.5 µM
IC50 [2]: 0.75 µM
IC50 (A549): 0.68 µM

Compound: COc1ccc(/C=N/NC(=O)Nc2ccc(Oc3ccnc4cc(OCCCN5CCCCC5)c(OC)cc34)c(F)c2)c(OC)c1
IC50 (HT-29 [1]): 1.6 µM
IC50 [2]: 1.99 µM
IC50 (A549): 1.4 µM

Compound: COc1cc2c(Oc3ccc(/C=N/NC(=O)Nc4ccc(Br)cc4)cc3F)ccnc2cc1OCCCN1CCCCC1
IC50 (MDA-MB-231): 0.8 µM
IC50 (HT-29 [1]): 0.27 µM
IC50 [2]: 0.06 µM

Compound: COc1cc2c(Oc3ccc(NC(=O)N/N=C/c4ccc(C(F)(F)F)cc4)cc3F)ccnc2cc1OCCCN1CCCC1
IC50 (MDA-MB-231): 1.8 µM
IC50 (HT-29 [1]): 0.81 µM
IC50 [2]: 1.3 µM
IC50 (A549): 0.79 µM

Compound: COc1cc2c(Oc3ccc(NC(=O)N/N=C/c4cc5ccccc5[nH]4)cc3F)ccnc2cc1OCCCN1CCCCC1
IC50 (MDA-MB-231): 0.98 µM
IC50 (HT-29 [1]): 0.82 µM
IC50 [2]: 0.83 µM
IC50 (A549): 0.78 µM

Compound: COc1cc2c(Oc3ccc(NC(=O)N/N=C/c4ccc(Cl)cc4Cl)cc3F)ccnc2cc1OCCCN1CCC(C)CC1
IC50 (MDA-MB-231): 0.91 µM
IC50 (HT-29 [1]): 0.47 µM
IC50 [2]: 0.35 µM

Compound: COc1cc2c(Oc3ccc(/C=N/NC(=O)Nc4ccc(F)c(F)c4)cc3F)ccnc2cc1OCCCN1CCCCC1
IC50 (MDA-MB-231): 0.96 µM
IC50 (HT-29 [1]): 0.49 µM
IC50 [2]: 0.32 µM

Compound: C=CCc1cccc(/C=N/NC(=O)Nc2ccc(Oc3ccnc4cc(OCCCN5CCCCC5)c(OC)cc34)c(F)c2)c1OC
IC50 (MDA-MB-231): 0.79 µM
IC50 (HT-29 [1]): 0.46 µM
IC50 [2]: 0.67 µM
IC50 (A549): 0.25 µM

Compound: COc1cc2c(Oc3ccc(NC(=O)N/N=C/c4ccc(O)cc4)cc3F)ccnc2cc1OCCCN1CCCCC1
IC50 (MDA-MB-231): 0.79 µM
IC50 (HT-29 [1]): 0.47 µM
IC50 [2]: 0.85 µM
IC50 (A549): 0.78 µM

Compound: COc1cc2c(Oc3ccc(NC(=O)N/N=C/c4cccs4)cc3F)ccnc2cc1OCCCN1CCCCC1
IC50 (MDA-MB-231): 1.26 µM
IC50 (HT-29 [1]): 0.77 µM
IC50 (PBL): 68.7 µM
IC50 [2]: 0.74 µM
IC50 (A549): 0.79 µM

Compound: COc1cc2c(Oc3ccc(NC(=O)N/N=C/c4ccc(OC(F)(F)F)cc4)cc3F)ccnc2cc1OCCCN1CCCCC1
IC50 (MDA-MB-231): 0.82 µM
IC50 (HT-29 [1]): 0.51 µM
IC50 [2]: 0.63 µM
IC50 (A549): 0.59 µM

Compound: COc1cc2c(Oc3ccc(/C=N/NC(=O)Nc4ccccc4)cc3F)ccnc2cc1OCCCN1CCCCC1
IC50 (MDA-MB-231): 1.2 µM
IC50 (HT-29 [1]): 0.19 µM
IC50 (PBL): 25.5 µM
IC50 [2]: 0.18 µM
IC50 (A549): 0.28 µM

Compound: COc1ccc(/C=N/NC(=O)Nc2ccc(Oc3ccnc4cc(OCCCN5CCC(C)CC5)c(OC)cc34)c(F)c2)cc1
IC50 (MDA-MB-231): 1 µM
IC50 (HT-29 [1]): 0.61 µM
IC50 (PBL): 23 µM
IC50 [2]: 0.47 µM
IC50 (A549): 0.43 µM

Compound: COc1cc2c(Oc3ccc(NC(=O)N/N=C/c4ccc([N+](=O)[O-])cc4)cc3F)ccnc2cc1OCCCN1CCOCC1
IC50 (MDA-MB-231): 1.7 µM
IC50 (HT-29 [1]): 0.71 µM
IC50 [2]: 0.75 µM

Compound: COc1cc2c(Oc3ccc(NC(=O)N/N=C/c4ccc([N+](=O)[O-])cc4)cc3F)ccnc2cc1OCCCN1CCC(C)CC1
IC50 (MDA-MB-231): 0.87 µM
IC50 (HT-29 [1]): 0.23 µM
IC50 [2]: 0.42 µM
IC50 (A549): 0.38 µM

Compound: COc1cc2c(Oc3ccc(NC(=O)N/N=C/c4ccc(C(F)(F)F)cc4)cc3F)ccnc2cc1OCCCN1CCCCC1
IC50 (MDA-MB-231): 1.1 µM
IC50 (HT-29 [1]): 0.66 µM
IC50 [2]: 0.63 µM
IC50 (A549): 0.66 µM

Compound: COc1cc2c(Oc3ccc(NC(=O)C4(C(=O)Nc5ccc(F)cc5)CC4)cc3F)ccnc2cc1OCCCN1CCOCC1 [FORETINIB]
Activity (Mus musculus [9]): Non-toxic
Activity [10]: 78.23%
Activity (Mus musculus [11]): Non-toxic
Activity (HT-29 [12]): 73.68%

Compound: C=CCc1cccc(/C=N/NC(=O)CN2CCN(Cc3ccccc3)CC2)c1O [PAC-1]
IC50 (PBL): 124 µM
IC50 [2]: 0.82 µM
